Values of other authors as cited in patent publication US7407949B2, “Benzamide derivatives as oxytocin agonists and vasopressin antagonists” (priority 2003, dated 2008).

Target: T1, V1a vasopressin receptor (Homo sapiens, UniProt P37288)
T1 construct: host or cells: patients (in vivo clinical study)
Details: dysmenorrhea patients, compared to placebo

T1 sequence (P37288 whole entry): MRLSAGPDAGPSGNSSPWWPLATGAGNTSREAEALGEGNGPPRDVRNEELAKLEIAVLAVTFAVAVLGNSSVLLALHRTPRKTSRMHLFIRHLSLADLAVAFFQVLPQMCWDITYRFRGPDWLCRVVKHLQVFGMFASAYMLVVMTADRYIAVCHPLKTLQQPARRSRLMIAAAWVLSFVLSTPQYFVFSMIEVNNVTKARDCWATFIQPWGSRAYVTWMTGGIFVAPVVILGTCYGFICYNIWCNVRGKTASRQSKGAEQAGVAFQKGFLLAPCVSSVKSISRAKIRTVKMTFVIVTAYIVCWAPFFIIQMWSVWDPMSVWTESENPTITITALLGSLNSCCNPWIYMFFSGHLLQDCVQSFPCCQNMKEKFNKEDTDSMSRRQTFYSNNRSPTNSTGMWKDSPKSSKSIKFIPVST

For COc1ccc(S(=O)(=O)N2c3ccc(Cl)cc3[C@](O)(c3ccccc3Cl)[C@@H]2C(=O)N2CCC[C@H]2C(N)=O)cc1OC [SR49059], the “amount of additional pain-killer taken” value is given as “dose-related decrease in the amount of additional pain-killer taken” and the pain is given as “dose-related decrease in pain”.
